Patent publication US20160199351A1, “COMPOSITIONS AND METHODS FOR INHIBITING FUNGAL INFECTIONS” (priority 2015, published 2016)
Where two headings read alike, the source gives them in different places.

Columns and labels:
[1] = test system: Histoplasma capsulatum; assay: organism not typed; type: cell-based
[2] = test system: Aspergillus fumigatus; assay: Aspergillus fumigatus mycelia growth dose-response (MIC by linear regression); type: cell-based; details: for MIC: Aspergillus fumigatus, FIG. 2A dose-response, linear regression
[3] = test system: Aspergillus fumigatus; assay: Recovery of Aspergillus fumigatus mycelia growth after removal of antifungal drugs (MTT); type: cell-based; details: treated 12 hours, drug removed, 24 hours more
[4] = test system: Trichophyton rubrum; assay: Trichophyton rubrum mycelia growth dose-response (MIC by linear regression); type: cell-based; details: for MIC: Trichophyton rubrum, FIG. 3 dose-response, linear regression
[5] = test system: Paeceilomyces variotii; assay: MIC, CLSI M38-A2 broth dilution (Table 1); type: cell-based; details: isolate QC
[6] = test system: Rhizopus oryzae; assay: MIC, CLSI M38-A2 broth dilution (Table 1); type: cell-based
[7] = test system: Scedosporium apiospermum; assay: MIC, CLSI M38-A2 broth dilution (Table 1); type: cell-based
[8] = test system: Apophysomyces; assay: MIC, CLSI M38-A2 broth dilution (Table 1); type: cell-based
[9] = test system: Blastomyces dermatitidis; assay: MIC (Table 6); type: cell-based; details: for MIC: read-out: MIC 100%
[10] = test system: P. variotii; assay: MIC (Table 5); details: Paecilomyces variotii; for MIC: read-out: MIC 100%
[11] = test system: Scedosporium sp.; assay: MIC (Table 5)
[12] = test system: Rhizopus oryzae; assay: MIC (Table 5); details: Rhizopus arrhizus
[13] = test system: Apophysomyces; assay: MIC (Table 5)
[14] = test system: C. guilliermondii; assay: MIC against Candida species (Table 4); details: Meyerozyma guilliermondii
[15] = test system: Cryptococcus neoformans; assay: MIC against Cryptococcus neoformans (Table 4); details: for MIC50 / MIC: Cryptococcus neoformans; for MIC: read-out: MIC 100%
[16] = test system: Pneumocystis murina; assay: In vitro ATP content of Pneumocystis (luciferin-luciferase assay); details: for IC50: Pneumocystis murina, read-out: IC50 (reduction in ATP)
[17] = read-out: MIC, concentration resulting in 50% inhibition of mycelia growth
[18] = read-out: MIC, concentration resulting in 90% inhibition of mycelia growth

NCC(=O)Nc1ccc(-n2nc(C(F)(F)F)cc2-c2ccc3c(ccc4ccccc43)c2)cc1 [AR-12, 2-amino-N-(4-(5-(phenanthren-2-yl)-3-(trifluoromethyl)-1H-pyrazol-1-yl)phenyl)acetamide]
1 gg/m1: MIC 50% ([7]; isolate SA2, 72 hours)
5.4 µM: MIC ([1]; read-out: MIC, concentration resulting in 50% inhibition of yeast growth)
1.78 µg/mL: IC50 ([16]; 72 h)
98.09%: Pm % Reduction in ATP/Vehicle Control ([16]; Table 3, 100 μg/ml, 72 hours)
5.76%: Pm % Reduction in ATP/Vehicle Control ([16]; Table 3, 1 μg/ml, 48 hours)
4 gg/m1: MIC 50% [5] | MIC 100% [5] | MIC 50% ([6]; isolate RO1, 24 hours) | MIC 100% ([6]; isolate RO1, 24 hours) | MIC 50% ([6]; isolate RO2, 24 hours) | MIC 100% ([6]; isolate RO2, 24 hours) | MIC 50% ([6]; isolate RO3, 24 hours) | MIC 100% ([6]; isolate RO3, 24 hours)
3.1 µM: MIC [2, 17]
2 gg/m1: MIC 50% ([7]; isolate SA1, 72 hours) | MIC 100% ([7]; isolate SA1, 72 hours) | MIC 100% ([7]; isolate SA2, 72 hours) | MIC 50% ([8]; isolate A1, 24 hours) | MIC 50% ([8]; isolate A2, 24 hours)
4.5 µM: MIC [4, 17]
54.02%: Pm % Reduction in ATP/Vehicle Control ([16]; Table 3, 10 μg/ml, 24 hours)
8.6 µM: MIC [2, 18]
9.69 µg/mL: IC50 ([16]; 24 h)
97.76%: Pm % Reduction in ATP/Vehicle Control ([16]; Table 3, 100 μg/ml, 48 hours)
94.23%: Pm % Reduction in ATP/Vehicle Control ([16]; Table 3, 10 μg/ml, 72 hours)
2.77 µg/mL: IC50 ([16]; 48 h)
83.6%: Pm % Reduction in ATP/Vehicle Control ([16]; Table 3, 100 μg/ml, 24 hours)
15.9 µM: MIC ([1]; read-out: MIC, concentration resulting in 90% inhibition of yeast growth)
0.25 µg/mL: MIC50 ([9]; isolate BD1, 72/192 hrs)
11.3 µM: MIC [4, 18]
8 to 40 µM: concentration that effectively prevents growth ([1]; stated for all three fungi) | concentration that effectively prevents growth ([2]; stated for all three fungi) | concentration that effectively prevents growth ([4]; stated for all three fungi)
0.5 µg/mL: MIC ([9]; isolate BD1, 72/192 hrs)
8 µg/mL: MIC50 ([12]; isolate R-2, 48/72 hrs) | MIC ([12]; read-out: MIC 100%, isolate R-2, 48/72 hrs)
2 µg/mL: MIC50 ([9]; isolate BD2, 72/192 hrs) | MIC ([9]; isolate BD2, 72/192 hrs) | MIC ([9]; isolate BD3, 72/192 hrs) | MIC50 ([10]; 24 h) | MIC50 ([11]; 24 h, isolate S-2, 24 hrs) | MIC ([11]; 24 h, read-out: MIC 100%, isolate S-2, 24 hrs) | MIC50 ([11]; isolate S-1, 48/72 hrs) | MIC50 ([12]; 24 h, isolate R-5, 24 hrs) | MIC50 ([13]; 24 h) | MIC 50% ([13]; isolate AE-2, 24 hrs) | MIC50 ([14]; 24 h, isolate Cgu-1, 24 hrs) | MIC50 ([14]; 24 h, isolate Cgu-2, 24 hrs) | MIC50 ([14]; 24 h, isolate Cgu-3, 24 hrs) | MIC50 ([14]; 24 h, isolate Cgu-4, 24 hrs) | MIC50 ([14]; 24 h, isolate Cgu-7, 24 hrs) | MIC ([14]; 24 h, read-out: MIC 100%, isolate Cgu-1, 24 hrs) | MIC ([14]; 24 h, read-out: MIC 100%, isolate Cgu-2, 24 hrs) | MIC ([14]; 24 h, read-out: MIC 100%, isolate Cgu-3, 24 hrs) | MIC ([14]; 24 h, read-out: MIC 100%, isolate Cgu-4, 24 hrs) | MIC ([14]; 24 h, read-out: MIC 100%, isolate Cgu-7, 24 hrs) | MIC50 ([14]; 48 h, isolate Cgu-2, 48 hrs) | MIC50 ([14]; 48 h, isolate Cgu-3, 48 hrs) | MIC50 ([14]; 48 h, isolate Cgu-4, 48 hrs) | MIC ([14]; 48 h, read-out: MIC 100%, isolate Cgu-4, 48 hrs) | MIC50 ([15]; 48 h, isolate CN-1, 48 hrs)
1 µg/mL: MIC50 ([9]; isolate BD3, 72/192 hrs)
4 µg/mL: MIC50 [10] | MIC ([10]; 24 h) | MIC [10] | MIC50 ([11]; isolate S-2, 48/72 hrs) | MIC ([11]; read-out: MIC 100%, isolate S-1, 48/72 hrs) | MIC ([11]; read-out: MIC 100%, isolate S-2, 48/72 hrs) | MIC50 ([12]; 24 h, isolate R-1, 24 hrs) | MIC50 ([12]; 24 h, isolate R-2, 24 hrs) | MIC50 ([12]; 24 h, isolate R-3, 24 hrs) | MIC50 ([12]; 24 h, isolate R-4, 24 hrs) | MIC50 ([12]; 24 h, isolate R-6, 24 hrs) | MIC ([12]; 24 h, read-out: MIC 100%, isolate R-1, 24 hrs) | MIC ([12]; 24 h, read-out: MIC 100%, isolate R-2, 24 hrs) | MIC ([12]; 24 h, read-out: MIC 100%, isolate R-3, 24 hrs) | MIC ([12]; 24 h, read-out: MIC 100%, isolate R-4, 24 hrs) | MIC ([12]; 24 h, read-out: MIC 100%, isolate R-5, 24 hrs) | MIC ([12]; 24 h, read-out: MIC 100%, isolate R-6, 24 hrs) | MIC50 ([12]; isolate R-1, 48/72 hrs) | MIC50 ([12]; isolate R-3, 48/72 hrs) | MIC50 ([12]; isolate R-4, 48/72 hrs) | MIC50 ([12]; isolate R-5, 48/72 hrs) | MIC50 ([12]; isolate R-6, 48/72 hrs) | MIC ([12]; read-out: MIC 100%, isolate R-1, 48/72 hrs) | MIC ([12]; read-out: MIC 100%, isolate R-3, 48/72 hrs) | MIC ([12]; read-out: MIC 100%, isolate R-4, 48/72 hrs) | MIC ([12]; read-out: MIC 100%, isolate R-5, 48/72 hrs) | MIC ([12]; read-out: MIC 100%, isolate R-6, 48/72 hrs) | MIC50 [13] | MIC ([13]; 24 h, read-out: MIC 100%, isolate AE-1, 24 hrs) | MIC ([13]; 24 h, read-out: MIC 100%, isolate AE-2, 24 hrs) | MIC 50% ([13]; isolate AE-2, 48/72 hrs) | MIC ([13]; read-out: MIC 100%, isolate AE-1, 48/72 hrs) | MIC ([13]; read-out: MIC 100%, isolate AE-2, 48/72 hrs) | MIC50 ([14]; 24 h, isolate Cgu-5, 24 hrs) | MIC50 ([14]; 24 h, isolate Cgu-6, 24 hrs) | MIC ([14]; 24 h, read-out: MIC 100%, isolate Cgu-5, 24 hrs) | MIC ([14]; 24 h, read-out: MIC 100%, isolate Cgu-6, 24 hrs) | MIC50 ([14]; 48 h, isolate Cgu-1, 48 hrs) | MIC50 ([14]; 48 h, isolate Cgu-5, 48 hrs) | MIC50 ([14]; 48 h, isolate Cgu-6, 48 hrs) | MIC50 ([14]; 48 h, isolate Cgu-7, 48 hrs) | MIC ([14]; 48 h, read-out: MIC 100%, isolate Cgu-1, 48 hrs) | MIC ([14]; 48 h, read-out: MIC 100%, isolate Cgu-2, 48 hrs) | MIC ([14]; 48 h, read-out: MIC 100%, isolate Cgu-3, 48 hrs) | MIC ([14]; 48 h, read-out: MIC 100%, isolate Cgu-5, 48 hrs) | MIC ([14]; 48 h, read-out: MIC 100%, isolate Cgu-6, 48 hrs) | MIC ([14]; 48 h, read-out: MIC 100%, isolate Cgu-7, 48 hrs) | MIC50 ([15]; 48 h, isolate CN-2, 48 hrs) | MIC50 ([15]; 48 h, isolate CN-3, 48 hrs) | MIC ([15]; 48 h) | MIC50 ([15]; 72 h, isolate CN-1, 72 hrs) | MIC50 ([15]; 72 h, isolate CN-2, 72 hrs) | MIC50 ([15]; 72 h, isolate CN-3, 72 hrs) | MIC ([15]; 72 h) | MIC 100% ([15]; isolate CN-2, 48 hrs) | MIC 100% ([15]; isolate CN-2, 72 hrs) | MIC 100% ([15]; isolate CN-3, 48 hrs) | MIC 100% ([15]; isolate CN-3, 72 hrs)
15.48%: Pm % Reduction in ATP/Vehicle Control ([16]; Table 3, 1 μg/ml, 72 hours)
no viable Aspergillus fumigatus mycelia: recovery of mycelia growth after removal of drug [3]
3.51%: Pm % Reduction in ATP/Vehicle Control ([16]; Table 3, 1 μg/ml, 24 hours)
85.38%: Pm % Reduction in ATP/Vehicle Control ([16]; Table 3, 10 μg/ml, 48 hours)
>16 gg/m1: MIC 100% ([8]; isolate A1, 24 hours) | MIC 100% ([8]; isolate A2, 24 hours)
